Results on 16 compounds are retold here after paper PMC6522510 (Nature Communications, 2019).

Test systems include CMS; CHRF288-11; M07e; U937; MV4-11; ML-2; MOLM-13; CMK.
Parameters in all cases: species or system AML cell lines (8); Primary HTS, single concentration about 10 uM, Cell Titer Glo viability; log10 luminescence, per cent inhibition relative to cycloheximide control
Common to all, as to conditions: 72 h, relative to cycloheximide control, log10 luminescence; inhibitor

Structures can show the parent of a compound that is named as a salt.

With `CN(C)C(=O)O[C@H]1CN[C@H](C#Cc2cc3ncnc(Nc4ccc(OCc5cccc(F)c5)c(Cl)c4)c3s2)C1` [SJ000573053-1, U20298/139/1 | U20747/39/1], the CMS %inh with CMS is 2.516%. Moreover, the CHRF288-11 %inh in the experiment with CHRF288-11 is 65.04%. Further, the M07e %inh in the experiment on M07e is 1.476%. Moreover, the U937 %inh with U937 is recorded as -0.4617%. In addition, the MV4-11 %inh in the experiment on MV4-11 was found to be 4.747%. The ML-2 %inh with ML-2 is reported as 5.015%. In addition, in the experiment with MOLM-13, the MOLM-13 %inh is -0.949%. In addition, the CMK %inh with CMK is listed as -4.087%.

In the case of `CS(=O)(=O)CCNCc1ccc(-c2ccc3ncnc(Nc4ccc(OCc5ccccc5)c(C(F)(F)F)c4)c3c2)o1` [SJ000573124-1, U14859/90/2], the CMS %inh in the experiment on CMS was -0.5761%. Also, in the experiment on CHRF288-11, the CHRF288-11 %inh is reported as -4.921%. Further, in the experiment on M07e, the M07e %inh is reported as -5.391%. In addition, the U937 %inh with U937 was found to be 1.669%. The MV4-11 %inh in the experiment on MV4-11 is given as -0.8429%. Besides, the ML-2 %inh with ML-2 was determined as 3.074%. For the same compound, the MOLM-13 %inh in the experiment on MOLM-13 came to 3.836%. In addition, in the experiment with CMK, the CMK %inh is listed as -0.3954%.

On to `COc1cc[nH]c1/C=C1\C(=O)Nc2ccc([N+](=O)[O-])c(N3CC[C@@H](O)C3)c21` [SJ000581128-1], for which, in the experiment with CMS, the CMS %inh came out at 95.24%. Also, in the experiment on CHRF288-11, the CHRF288-11 %inh turned out to be 53.94%. In the experiment on M07e, the M07e %inh is 106%. For the same compound, the U937 %inh in the experiment with U937 was 87.66%. The MV4-11 %inh in the experiment on MV4-11 stood at 84.07%. The ML-2 %inh in the experiment on ML-2 is reported as 60.5%. In addition, the MOLM-13 %inh in the experiment on MOLM-13 was found to be 123.9%. Also, in the experiment with CMK, the CMK %inh is 98.31%.

As to `COc1cc(F)c(F)c(F)c1C(=O)c1cnc(NC2CCN(S(C)(=O)=O)CC2)nc1N` [SJ000581164-1], the CMS %inh with CMS was found to be 23.31%. Besides, the CHRF288-11 %inh in the experiment on CHRF288-11 was determined as 47.57%. Moreover, the M07e %inh with M07e is 35.86%. In addition, in the experiment with U937, the U937 %inh is reported as 40.5%. Further, the MV4-11 %inh in the experiment on MV4-11 was determined as 22.69%. In the experiment with ML-2, the ML-2 %inh was 21.95%. In addition, the MOLM-13 %inh with MOLM-13 was 83.36%. Besides, the CMK %inh in the experiment with CMK was 59.95%.

Consider `CN1CCN(CCc2cccc(C(=O)c3cnn(-c4ccc(F)cc4)c3N)c2)CC1` [SJ000581170-1], for which the CMS %inh with CMS came to 1.769%. In addition, the CHRF288-11 %inh in the experiment with CHRF288-11 is given as -2.499%. Besides, the M07e %inh in the experiment on M07e was 1.993%. Further, in the experiment on U937, the U937 %inh amounted to 7.701%. Also, in the experiment on MV4-11, the MV4-11 %inh was found to be 3.349%. The ML-2 %inh in the experiment with ML-2 is 2.973%. Further, the MOLM-13 %inh with MOLM-13 is 4.249%. Moreover, the CMK %inh in the experiment with CMK was determined as 6.346%.

Take `N#Cc1c(NC(=O)c2ccccc2F)sc2c1CCCC2` [SJ000121296-2, R15619/66/1]: the CMS %inh in the experiment with CMS turned out to be 2.048%. For the same compound, in the experiment on CHRF288-11, the CHRF288-11 %inh is reported as 1.937%. Besides, the M07e %inh with M07e was 15.03%. The U937 %inh in the experiment with U937 is on record as 21.81%. The MV4-11 %inh in the experiment with MV4-11 is recorded as -1.785%. In addition, the ML-2 %inh in the experiment with ML-2 turned out to be 8%. In the experiment with MOLM-13, the MOLM-13 %inh was determined as 0.9257%. The CMK %inh in the experiment on CMK amounted to 11.25%.

With `CCCCC1=NC2(CCCC2)C(=O)N1Cc1ccc(-c2ccccc2-c2nnn[nH]2)cc1` [SJ000286674-2, IRBESARTAN], in the experiment with CMS, the CMS %inh is -2.028%. The CHRF288-11 %inh in the experiment on CHRF288-11 came out at 1.638%. Moreover, the M07e %inh in the experiment with M07e came to 0.4149%. Besides, the U937 %inh with U937 is listed as -0.5514%. Besides, the MV4-11 %inh with MV4-11 came to 1.017%. The ML-2 %inh in the experiment with ML-2 is on record as 1.25%. Further, the MOLM-13 %inh in the experiment with MOLM-13 is 17.32%. Also, the CMK %inh in the experiment with CMK is 0.3545%.

As for `N#Cc1c(NC(=O)CN2CCOCC2)sc2c1CCCC2` [SJ000573317-1, ST/830472], the CMS %inh in the experiment on CMS stood at 0.5199%. Also, in the experiment on CHRF288-11, the CHRF288-11 %inh was found to be 1.546%. The M07e %inh with M07e is 3.047%. Also, the U937 %inh in the experiment with U937 was 3.525%. The MV4-11 %inh in the experiment on MV4-11 is listed as -2.657%. Besides, the ML-2 %inh in the experiment with ML-2 was determined as 1.88%. For the same compound, the MOLM-13 %inh with MOLM-13 was -0.7057%. In addition, the CMK %inh in the experiment with CMK is -5.985%.

With `CN1CCN(C2=Nc3ccccc3Oc3ccc(Cl)cc32)CC1` [SJ000286106-7, LOXAPINE SUCCINATE], the CMS %inh in the experiment on CMS is listed as 1.134%. For the same compound, the CHRF288-11 %inh with CHRF288-11 came to 14.63%. Also, the M07e %inh with M07e was 4.618%. Further, in the experiment on U937, the U937 %inh is on record as 3.14%. Moreover, the MV4-11 %inh with MV4-11 is on record as 2.165%. In addition, the ML-2 %inh with ML-2 was found to be 1.422%. For the same compound, the MOLM-13 %inh in the experiment with MOLM-13 is on record as 7.459%. The CMK %inh in the experiment with CMK was -0.3035%.

Regarding `COc1cc2c(cc1OC)C(=O)C(CC1CCN(Cc3ccccc3)CC1)C2` (centres unmarked) [SJ000555704-1, DONEPEZIL HYDROCHLORIDE], the CMS %inh in the experiment with CMS is on record as 6.718%. Also, the CHRF288-11 %inh in the experiment with CHRF288-11 turned out to be 3.237%. Besides, the M07e %inh in the experiment on M07e amounted to 3.462%. Besides, the U937 %inh in the experiment with U937 is 1.153%. Further, the MV4-11 %inh with MV4-11 was found to be 4.602%. Further, in the experiment with ML-2, the ML-2 %inh amounted to 0.002244%. Further, the MOLM-13 %inh in the experiment with MOLM-13 is 1.714%. For the same compound, the CMK %inh in the experiment on CMK amounted to 10.45%.

With `CCn1c(-c2nonc2N)nc2cncc(C(=O)N3CC[C@H](N)C3)c21` [SJ000573211-1, MH203936-065A1], in the experiment on CMS, the CMS %inh stood at 6.352%. For the same compound, in the experiment with CHRF288-11, the CHRF288-11 %inh is on record as 24.28%. The M07e %inh with M07e was 8.501%. Besides, the U937 %inh in the experiment with U937 came to 24.07%. Also, the MV4-11 %inh in the experiment with MV4-11 came to 35.54%. For the same compound, in the experiment on ML-2, the ML-2 %inh is recorded as 13.35%. Moreover, the MOLM-13 %inh with MOLM-13 was determined as 12.04%. Besides, the CMK %inh with CMK is 50.04%.

As for `CS(=O)(=O)CCNCc1ccc(-c2ccc3ncnc(Nc4ccc(OCc5ccccc5)c(Br)c4)c3c2)o1` [SJ000573011-1, U14801/114/2], the CMS %inh with CMS worked out at 2.264%. Besides, the CHRF288-11 %inh with CHRF288-11 worked out at 1.432%. In addition, in the experiment on M07e, the M07e %inh was -3.258%. Besides, the U937 %inh in the experiment with U937 is reported as -1.717%. In addition, the MV4-11 %inh with MV4-11 was determined as 1.235%. Moreover, the ML-2 %inh in the experiment with ML-2 is reported as -0.7119%. Moreover, in the experiment with MOLM-13, the MOLM-13 %inh is reported as 0.135%. Besides, in the experiment with CMK, the CMK %inh turned out to be 0.7024%.

Turning to `COC[C@@H](NC(=O)[C@@H](NC(=O)[C@H](CCCc1ccc(-c2ccccc2)c(C)c1)CC(=O)O)C(C)(C)C)c1ccccc1` [SJ000772423-1, UK 370106], in the experiment with CMS, the CMS %inh turned out to be 4.79%. Further, the CHRF288-11 %inh in the experiment on CHRF288-11 stood at 6.021%. Also, in the experiment on M07e, the M07e %inh came out at 2.4%. In the experiment on U937, the U937 %inh is reported as 2.263%. Further, the MV4-11 %inh in the experiment with MV4-11 was determined as 2.629%. Further, the ML-2 %inh in the experiment on ML-2 was 0.2215%. Moreover, in the experiment on MOLM-13, the MOLM-13 %inh turned out to be 2.493%. Further, the CMK %inh with CMK was -0.5196%.

For `CN(C)CCOc1ccc(-c2nc(-c3ccncc3)c(-c3ccc4c(c3)CC/C4=N\O)[nH]2)cc1` [SJ000573289-1, MM206071-092A1 | SB590885], the CMS %inh in the experiment on CMS is 1.753%. The CHRF288-11 %inh in the experiment with CHRF288-11 is recorded as 9.844%. Besides, the M07e %inh in the experiment on M07e was determined as 3.647%. Besides, the U937 %inh with U937 stood at 1.485%. Moreover, in the experiment on MV4-11, the MV4-11 %inh worked out at 2.418%. Moreover, the ML-2 %inh in the experiment on ML-2 is recorded as -1.225%. Besides, in the experiment on MOLM-13, the MOLM-13 %inh amounted to 11.69%. Moreover, the CMK %inh in the experiment with CMK is recorded as -1.288%.

Consider `CCCc1cc(=O)[nH]c(=S)[nH]1` [SJ000286145-4, PROPYLTHIOURACIL], for which, in the experiment on CMS, the CMS %inh was -1.815%. Besides, the CHRF288-11 %inh in the experiment with CHRF288-11 came out at 1.792%. Moreover, the M07e %inh in the experiment on M07e is listed as 2.631%. For the same compound, the U937 %inh in the experiment with U937 is on record as -0.4734%. Moreover, the MV4-11 %inh with MV4-11 was 0.3408%. In addition, the ML-2 %inh in the experiment with ML-2 was 1.023%. Moreover, in the experiment with MOLM-13, the MOLM-13 %inh was -0.9508%. The CMK %inh in the experiment on CMK was -4.099%.

As for `COC(=O)Nc1nc2cc(Oc3ccc(NC(=O)Nc4cccc(Br)c4)cc3)ccc2[nH]1` [SJ000573266-1, T261/62/3], the CMS %inh in the experiment on CMS was 26.73%. Moreover, the CHRF288-11 %inh in the experiment on CHRF288-11 is 12.69%. Further, the M07e %inh in the experiment with M07e turned out to be 12.78%. In addition, the U937 %inh in the experiment on U937 was found to be 79.03%. Further, the MV4-11 %inh in the experiment with MV4-11 is listed as 65.99%. Besides, the ML-2 %inh in the experiment on ML-2 is given as 3.598%. Further, the MOLM-13 %inh in the experiment on MOLM-13 came to 76.65%. Further, the CMK %inh in the experiment with CMK was 40.21%.
